“Also recorded” adds a separate entry of the source.
What was measured:
[1] = tested on: Male Lewis rats (CIA model, osteophyte formation); assay: CIA model in rats, micro-CT study of bone structure; type: in vivo, rat
Description: Male Lewis rats were immunized and treated exactly as described in example 2.
Specifically, the animals were divided in four groups: controls, vehicle treated CIA rat, and two groups administered with a dose of 10 mg/kg and 30 mg/kg, respectively, of the compound of the invention.
After 14 days of treatment, bone samples corresponding to hind limbs (left and right) of arthritic rats or sham ones were sent for micro-CT analysis to Atlantic Bone Screen (ABS, 3 rue Aronnax, 44800 SAINT-HERBLAIN France). Bone samples were sent to ABS facilities after they have been removed from soft tissue and fixed in formalin solution within a maximum of 1 week.
40 samples were analyses blindly. Then, the unmask data were analyzed to compare the different groups:
Analyses of calcaneus and knee density and microarchitectural characteristics were performed using the high-resolution X-ray micro-CT. […] To quantitatively compare the four groups, the hind paw calcaneus, knee (proximal tibial and distal femoral epiphysis) and proximal tibial metaphysis were identified as the anatomical sites for micro-CT analysis. The bone mineral density (BMD), bone volume ratio (BV/TV), bone surface (BS) and bone surface-volume ratio (BS/BV) was calculated while including calcaneus, proximal tibial and distal femoral epiphysis (cortical bone, cancellous bone and potential osteophytes).

[2] = tested on: Male Lewis rats (CIA model, heterotopic bone formation); assay: Collagen Induce Arthritis (CIA) in rats, histological scores; type: in vivo, rat
From the text: Collagen Induce Arthritis (CIA) in rats is among the most common models used to mimic human arthritis and especially Rheumatoid Arthritis (RA). In general the joint response seen in this model is quite similar to that observed in human pathology, in terms of inflammation, bone erosion and cartilage damage. Nevertheless, this model differs from Rheumatoid Arthritis, since it is endowed with a consistent periosteal woven bone formation (immature bone) that is not a usual feature of human RA (maybe, less than 10% of patients have this type of bone reaction). On the contrary, this disordered apposition of new bone is the distinctive feature of heterotopic ossification. Therefore, this model was used to study the effect of the compound of the invention in Pathological heretopic osteogenesis.
Male Lewis rats were immunized by intradermal injection at the base of the tail with an emulsion containing 150 μg of bovine collagen type II (bCII) in complete Freund's adjuvant (CFA) or received an injection with incomplete Freund's adjuvant (sham group). Three weeks after the first immunisation, animals were boosted with the same procedure. Three days after booster injection, arthritis had developed in all animals but the sham group. The administration of the compound (1) Form A started at this time point and lasted for 14 days (once a day, unless otherwise indicated).
The paws were fixed in 10% neutral buffered formalin (Bio-Optica, Milan, Italy) and subsequently decalcified in EDTA for 4 weeks. Samples were dehydrated in an ethanol series and embedded in paraffin. At least three non-consecutive sections for each paw were blindly scored at the level of the tarsus, metatarsus and calcaneus for the following histological features of woven bone. Two independent pathologists performed histopathology on blinded slides. The data of right and left hind limbs were summed for each rat.
In FIG. 3 the dose-response curve for the compound of the invention is reported. the compound was administered once a day for 14 days on the site where the pathological bone formation was expected as induced in the CIA model in rats. The dose were 1 mg/Kg, 3 mg/kg and 10 mg/kg. The data were expressed as the median (boxed area), 95% interquartile range (whiskers), and individual data (symbols) of the histological scores for heterotopic bone formation (osteogenesis) given by two pathologists unaware of the treatment groups on a following scale: 0=absent; 1=mild/focal; 2=moderate/multifocal; 3=severe/multifocal to diffuse. Since arthritis was bilateral, the scores for each rat was the sum of the two leg scores. […] The compound reached the maximal activity at 10 mg/kg.
The data were expressed as the median histological scores for heterotopic bone formation (osteogenesis) as described for FIG. 3. […] As for osteogenesis, the data reported in this graph were the median (boxed area), 95% interquartile range (whiskers), and individual data (symbols) of the histological scores for synovial hyperplasia (oedema) given by two pathologists unaware of the treatment groups on a following scale: 0=normal: 1-2 layers of synovial lining cells, 1=mild: focal to multifocal 3-4 layers of synovial lining cells and/or mild proliferation of subsynovial tissue, 2=moderate: focal to mutlitfocal >4-6 layers of synovial lining cells and/or moderate proliferation of subsynovial tissue, 3=severe: multifocal to diffuse >6-8 layers of synovial lining cells and/or severe proliferation of subsynovial tissue. Since arthritis was bilateral, the scores for each rat is the sum of the two leg scores. This underline a preferential and surprising effect of (R)-4-(1-(6-(4-(trifluoromethyl)benzyl)-6-azaspiro[2.5]octane-5-carboxamido)cyclopropyl)benzoic acid on the heterotopic bone formation, […].
The free acid form has been assayed in the rat CIA model as already described for its sodium salt (Form A). […]

## O=C([O-])c1ccc(C2(NC(=O)[C@H]3CC4(CCN3Cc3ccc(C(F)(F)F)cc3)CC4)CC2)cc1.[Na+] [Form A, sodium (R)-4-(1-(6-(4-(trifluoromethyl)benzyl)-6-azaspiro[2.5]octane-5-carboxamido)cyclopropyl)benzoate]
[1]; 10 and 30 mg/kg, 14 days of treatment, FIG. 8
  osteophytes at calcaneus and knee (micro-CT): the osteophytes disappeared at both site
[1]; micro-CT, maintained at 30 mg/kg
  optimal dose (maximal activity) against osteophyte formation: 10 mg/kg
[2]; 1 mg/kg combined with methotrexate 0.5 mg/kg every other day, FIG. 5
  activity against heterotopic ossification in combination with methotrexate: not hindered by the combination with this drug
[2]; 1 mg/kg vs methotrexate 0.5 mg/kg every other day, FIG. 5
  activity against heterotopic ossification compared with methotrexate: higher than the comparative compound
[2]; 10 mg/kg once a day vs MSM 600 mg/kg, FIG. 4
  activity on heterotopic bone formation (osteogenesis) compared with Methylsulfonylmethane (MSM): greatly superior
[2]; 15 mg/kg each, FIG. 6b
  control of the inflammatory response (edema; histological scores for synovial hyperplasia): equally effective
[2]; 15 mg/kg, identical dose of rofecoxib, FIG. 6a
  activity in preventing pathological heterotopic ossification compared with rofecoxib: surprisingly superior
[2]; 1, 3 and 10 mg/kg once a day for 14 days, FIG. 3
  histological scores for heterotopic bone formation (osteogenesis): capable to counteract the heterotopic bone formation; also recorded: able to counteract bony spur formation in a dose-dependent fashion
[2]; FIG. 5
  lowest effective dose against heterotopic ossification: 1 mg/kg
[2]; once a day for 14 days, FIG. 3
  dose of maximal activity against heterotopic bone formation: 10 mg/kg
